Assays:
[1] = target: influenza neuraminidase (N2) (Influenza A virus, UniProt P06820); experiment: biochemical; format: biochemical, influenza virus Type A
[2] = target: Influenza NA Type B B/Lee (Influenza B virus, UniProt P03474); experiment: Inhibition of influenza neuraminidase (B/Lee); format: biochemical
[3] = target: neuraminidase from the H1N9 strain of influenza (Influenza A virus, UniProt P03472); experiment: biochemical
Oral bioavailability = format: in vivo
[4] = cited from earlier work
HA = settings: cited from earlier work

SMILES	IC50 [1]	IC50 [3]	also measured
CCC(CC)CNc1cc(C(=O)O)ccc1N1C(=O)CCC1(CO)CO [Example 11, 1-{4-Carboxy-2-[3-pentyl)methylaminolphenyl}-5,5-bis-(hydroxymethyl)pyrrolidin-2-one.]	3.5 µM		
CCC(CC)Nc1cc(C(=O)O)ccc1N1C(=O)CCC1(CN)CO (stereo not shown) [Compound B]	0.04 µM		Effectiveness relative to example 8 for the inhibition of influenza neuraminidase (N2) [1]: approximately twice as effective as example 8; IC50 [2]: 49 µM
CCC(CC)Nc1cc(C(=O)O)ccc1N1CCCC1=O [Example 7, 1-[4-Carboxy-2-(3-pentylamino)phenyl]pyrrolidin-2-one]		220 µM	
O=C(O)c1ccc(N2C(=O)CCC2(CO)CO)cc1 [Example 5, 1-(4-Carboxyphenyl)-5,5-bis-(hydroxymethyl)pyrrolidin-2-one]		700 µM	
CCC(CC)Nc1cc(C(=O)O)ccc1N1C(=O)CCC1(CO)CO [Example 8, 1-[4-Carboxy-2-(3-pentylamino)phenyl]-5,5-bis-(hydroxymethyl)pyrrolidin-2-one]	0.071 µM	0.048 µM	IC50 [2]: 93 µM; Oral bioavailability (Oral bioavailability): orally bioavailable
CCCC(CCC)Nc1cc(C(=O)O)ccc1N1C(=O)CCC1(CO)CO [Example 10, 1-[4-Carboxy-2-(4-heptylamino)phenyl]-5,5-bis-(hydroxymethyl)pyrrolidin-2-one]	8.1 µM	5.5 µM	
CCC(C)C(=O)Nc1cc(C(=O)O)ccc1N1C(=O)CCC1(CN)CO (stereo not shown) [Example 17, 5-Aminomethyl-1-{[4-carboxy-2-(1-methylpropyl)carbonylamino]phenyl}-5-hydroxymethylpyrrolidin-2-one]	6 µM		
CCC(CC)C(=O)Nc1cc(C(=O)O)ccc1N1C(=O)CCC1(CO)CO [Example 16]	0.82 µM		
CCC(CC)Nc1cc(C(=O)O)ccc1N1C(=O)CCC1(CO)CCO (stereo not shown) [Example 18, 1-[4-Carboxy-2-(1-ethylpropylamino)phenyl]-5-hydroxyethyl-5-hydroxymethyl-pyrrolidin-2-one]	184 µM		
NCC1CCC(=O)N1c1ccc(C(=O)O)cc1N=C(N)N (stereo not shown) [Example 4, 1-1-{2-{[(Amino)(imino)methyl]amino}-4-carboxyphenyl}-5-(aminomethyl)pyrrolidin-2-one]		2600 µM	
CC(=O)N[C@H]1[C@H]([C@H](O)[C@H](O)CO)OC(C(=O)O)=C[C@@H]1O [DANA, 2-deoxy-2,3-didehydro-N-acetylneuraminic acid]			Activity in vivo [4]: inactive in vivo; Inhibition in vitro (HA): inhibit HA in vitro
CCC(C)C(=O)Nc1cc(C(=O)O)ccc1N1C(=O)CCC1(CO)CO (stereo not shown) [Example 15, 1-{[4-Carboxy-2-(1-methylpropyl)carbonylamino]pheny}-5,5-bis(hydroxymethyl)-pyrrolidin-2-one]	0.18 µM		
O=C(O)c1ccc(N2CCCC2=O)cc1 [Example 1, 1-(4-Carboxyphenyl)pyrrolidin-2-one]		> 7000 µM	melting point: 244 to 246 °C
CCCNc1cc(C(=O)O)ccc1N1C(=O)CCC1(CO)CO [Example 12]	15.5 µM		
N=C(N)Nc1cc(C(=O)O)ccc1N1C(=O)CCC1(CO)CO [Example 6, 1-{2-{[(Amino)(imino)methyl]amino}-4-carboxyphenyl}-5,5-bis-(hydroxymethyl)-pyrrolidin-2-one]		5 µM	
CCC(=O)Nc1cc(C(=O)O)ccc1N1C(=O)CCC1(CO)CO [Example 14, 1-[4-Carboxy-2-(ethylcarbonylamino)phenyl]-5,5-bis(hydroxymethyl)pyrrolidin-2-one]	1.5 µM		
CCCC(CC)Nc1cc(C(=O)O)ccc1N1C(=O)CCC1(CO)CO (stereo not shown) [Example 9, 1-[4-Carboxy-2-(3-hexylamino)phenyl]-5,5-bis-(hydroxymethyl)pyrrolidin-2-one]		116 µM	
